Laboratory results from patent US20150374673A1, “Combination Therapy for the Treatment of Nosocomial Pneumonia” (priority 2013, published 2015).

Key:
[1] = system: K. pneumoniae; test: MIC, CLSI broth microdilution in CAMHB with 0-10% pulmonary surfactant (avibactam fixed at 4 μg/mL in combination); type: cell-based; conditions: Klebsiella pneumoniae
Procedure: (§1) The bacterial strains used in this testing were part of the microbiological culture collection housed at AstraZeneca R&D Boston (AstraZeneca Research Collection, designated ARC). The panel of bacterial isolates used for this testing was comprised of five CLSI QC reference strains and the remainder were either recent clinical isolates expressing β-lactamases or isolates from the primary bacterial screening panels.
(§2) MIC values were determined using the CLSI broth microdilution methodology with slight variation. Stock compound mother plates were prepared and used to spot 2 μL aliquots of serial 2-fold drug dilutions to columns 1-11 of 96-well daughter plates using a Perkin-Elmer MiniTrak™ MultiPosition dispenser. […] An inoculum volume of 100 μL (5×10E^5 CFU/mL) in CAMHB containing 0, 1, 2.5, 5, or 10% pulmonary surfactant was added using a multichannel Finnpipette® to each well of the 96-well plate.
(§3) The minimum inhibitory concentration (MIC) values against each organism/drug combination were determined using broth microdilution methodology according to CLSI guidelines. The recommended reference bacterial strains for each test group and reference compounds were incorporated into each test. For Gram-negatives, the reference bacterial strains were Escherichia coli ATCC 25922, E. coli ATCC 35218, Klebsiella pneumoniae ATCC 700603, and Pseudomonas aeruginosa ATCC 27853. Staphylococcus aureus ATCC 29213 was the reference bacterial strain for the Gram-positives.
(§4) MIC values for individual isolates were read visually. The MICs for each compound or combination in pulmonary surfactant was compared to the compound or combination tested in CAMHB alone.

[2] = system: E. coli; test: as above; type: cell-based; conditions: Escherichia coli
Procedure: as §1, §2, §3, §4

NC(=O)[C@@H]1CC[C@@H]2CN1C(=O)N2OS(=O)(=O)[O-].[Na+] [avibactam, [(2S,5R)-2-carbamoyl-7-oxo-1,6-diazabicyclo[3.2.1]octan-6-yl]hydrogen sulfate]
MIC ([1]; K. pneumoniae ARC1865 (Primary Screening Panel), surfactant 10%): > 64 µg/mL
MIC ([1]; K. pneumoniae ARC1865 (Primary Screening Panel), surfactant concentration cell empty): > 64 µg/mL
MIC ([1]; K. pneumoniae ARC2528 (Clinical isolate), surfactant 0%): 64 µg/mL
MIC ([1]; K. pneumoniae ARC2528 (Clinical isolate), surfactant 1%): 64 µg/mL
MIC ([1]; K. pneumoniae ARC2528 (Clinical isolate), surfactant 2.5%): 64 µg/mL
MIC ([1]; K. pneumoniae ARC2528 (Clinical isolate), surfactant 5%): 64 µg/mL
MIC ([1]; K. pneumoniae ARC2528 (Clinical isolate), surfactant 10%): 32 µg/mL
MIC ([1]; K. pneumoniae ARC2929 (KPC-3), surfactant 0%): 8 µg/mL
MIC ([1]; K. pneumoniae ARC2929 (KPC-3), surfactant 1%): 8 µg/mL
MIC ([1]; K. pneumoniae ARC2929 (KPC-3), surfactant 2.5%): 8 µg/mL
MIC ([1]; K. pneumoniae ARC2929 (KPC-3), surfactant 5%): 8 µg/mL
MIC ([1]; K. pneumoniae ARC2929 (KPC-3), surfactant 10%): 8 µg/mL
MIC ([1]; K. pneumoniae ARC2945 (KPC-2, SHV-11, TEM-1, OXA-9), surfactant 0%): 8 µg/mL
MIC ([1]; K. pneumoniae ARC2945 (KPC-2, SHV-11, TEM-1, OXA-9), surfactant 1%): 8 µg/mL
MIC ([1]; K. pneumoniae ARC2945 (KPC-2, SHV-11, TEM-1, OXA-9), surfactant 2.5%): 8 µg/mL
MIC ([1]; K. pneumoniae ARC2945 (KPC-2, SHV-11, TEM-1, OXA-9), surfactant 5%): 8 µg/mL
MIC ([1]; K. pneumoniae ARC2945 (KPC-2, SHV-11, TEM-1, OXA-9), surfactant 10%): 8 µg/mL
MIC ([1]; K. pneumoniae ARC3713 (CTX-M-15, OXA-1/30, SHV-5, TEM-1), surfactant 0%): 16 µg/mL
MIC ([1]; K. pneumoniae ARC3713 (CTX-M-15, OXA-1/30, SHV-5, TEM-1), surfactant 1%): 16 µg/mL
MIC ([1]; K. pneumoniae ARC3713 (CTX-M-15, OXA-1/30, SHV-5, TEM-1), surfactant 2.5%): 16 µg/mL
MIC ([1]; K. pneumoniae ARC3713 (CTX-M-15, OXA-1/30, SHV-5, TEM-1), surfactant 5%): 16 µg/mL
MIC ([1]; K. pneumoniae ARC3713 (CTX-M-15, OXA-1/30, SHV-5, TEM-1), surfactant 10%): 16 µg/mL
MIC ([2]; ATCC25922, E. coli ARC4 (CLSI QC strain, ATCC 25922), surfactant 0%): 32 µg/mL
MIC ([2]; ATCC25922, E. coli ARC4 (CLSI QC strain, ATCC 25922), surfactant 1%): 32 µg/mL
MIC ([2]; ATCC25922, E. coli ARC4 (CLSI QC strain, ATCC 25922), surfactant 2.5%): 32 µg/mL
MIC ([2]; ATCC25922, E. coli ARC4 (CLSI QC strain, ATCC 25922), surfactant 5%): 16 µg/mL
MIC ([2]; ATCC25922, E. coli ARC4 (CLSI QC strain, ATCC 25922), surfactant 10%): 16 µg/mL
MIC ([2]; ATCC35218, E. coli ARC016 (ATCC 35218, TEM-1), surfactant 0%): 16 µg/mL
MIC ([2]; ATCC35218, E. coli ARC016 (ATCC 35218, TEM-1), surfactant 1%): 16 µg/mL
MIC ([2]; ATCC35218, E. coli ARC016 (ATCC 35218, TEM-1), surfactant 2.5%): 16 µg/mL
MIC ([2]; ATCC35218, E. coli ARC016 (ATCC 35218, TEM-1), surfactant 5%): 16 µg/mL
MIC ([2]; ATCC35218, E. coli ARC016 (ATCC 35218, TEM-1), surfactant 10%): 16 µg/mL
MIC ([2]; E. coli ARC523 (W3110), surfactant 0%): > 64 µg/mL
MIC ([2]; E. coli ARC523 (W3110), surfactant 1%): > 64 µg/mL
MIC ([2]; E. coli ARC523 (W3110), surfactant 2.5%): > 64 µg/mL
MIC ([2]; E. coli ARC523 (W3110), surfactant 5%): > 64 µg/mL
MIC ([2]; E. coli ARC523 (W3110), surfactant 10%): > 64 µg/mL
MIC ([2]; E. coli ARC3666 (CTX-M-15, OXA-1/30, SHV-31, TEM-1), surfactant 0%): 8 µg/mL
MIC ([2]; E. coli ARC3666 (CTX-M-15, OXA-1/30, SHV-31, TEM-1), surfactant 1%): 8 µg/mL
MIC ([2]; E. coli ARC3666 (CTX-M-15, OXA-1/30, SHV-31, TEM-1), surfactant 2.5%): 8 µg/mL
MIC ([2]; E. coli ARC3666 (CTX-M-15, OXA-1/30, SHV-31, TEM-1), surfactant 5%): 8 µg/mL
MIC ([2]; E. coli ARC3666 (CTX-M-15, OXA-1/30, SHV-31, TEM-1), surfactant 10%): 8 µg/mL
MIC ([2]; E. coli ARC3690 (CTX-M-15, SHV-12), surfactant 0%): 16 µg/mL
MIC ([2]; E. coli ARC3690 (CTX-M-15, SHV-12), surfactant 1%): 16 µg/mL
MIC ([2]; E. coli ARC3690 (CTX-M-15, SHV-12), surfactant 2.5%): 16 µg/mL
MIC ([2]; E. coli ARC3690 (CTX-M-15, SHV-12), surfactant 5%): 16 µg/mL
MIC ([2]; E. coli ARC3690 (CTX-M-15, SHV-12), surfactant 10%): 16 µg/mL
